Test results: ChEMBL document CHEMBL1201862, “PubChem BioAssay data set” (2004)
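Following 48 hours of exposure in 96-well plates, responses at five concentrations were used to interpolate endpoints linearly. Abbreviation: GI50, concentration required for 50% inhibition of growth.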 The source made the active and inactive calls. Rule as the data show it: active = GI50 up to about 1.1 µM and inactive = higher.

Tests used:
Experiment in all cases: growth of human tumour cells (NCI), 48 h
K562 = system: K562
MDA-MB-231 = system: MDA-MB-231
LOX IMVI = system: LOX IMVI
MDA-N = system: MDA-N
HCT-116 = system: HCT-116
NCI-H226 = system: NCI-H226
CCRF-CEM = system: CCRF-CEM
SR = system: SR
NCI-H460 = system: NCI-H460
RPMI-8226 = system: RPMI-8226
MDA-MB-435 = system: MDA-MB-435
M14 = system: M14
NCI-H23 = system: NCI-H23
SF-539 = system: SF-539
EKVX = system: EKVX
OVCAR-3 = system: OVCAR-3
HCT-15 = system: HCT-15
SK-MEL-2 = system: SK-MEL-2
UACC-62 = system: UACC-62
786-0 = system: 786-0
SW-620 = system: SW-620
HT-29 = system: HT-29
TK-10 = system: TK-10
SF-295 = system: SF-295
ACHN = system: ACHN
CAKI-1 = system: CAKI-1
SK-MEL-5 = system: SK-MEL-5
NCI-H522 = system: NCI-H522
T47D = system: T47D
PC-3 = system: PC-3
RXF 393 = system: RXF 393
BT-549 = system: BT-549
OVCAR-5 = system: OVCAR-5
COLO 205 = system: COLO 205
SNB-19 = system: SNB-19
HOP-92 = system: HOP-92
IGROV-1 = system: IGROV-1
UO-31 = system: UO-31
OVCAR-4 = system: OVCAR-4
HCC 2998 = system: HCC 2998
SN12C = system: SN12C
A549 = system: A549
U-251 = system: U-251
HL-60 = system: HL-60
UACC-257 = system: UACC-257
MOLT-4 = system: MOLT-4
MCF7 = system: MCF7
DU-145 = system: DU-145
A498 = system: A498
HOP-62 = system: HOP-62
OVCAR-8 = system: OVCAR-8
SK-MEL-28 = system: SK-MEL-28
SNB-75 = system: SNB-75
Malme-3M = system: Malme-3M
SK-OV-3 = system: SK-OV-3
KM12 = system: KM12
NCI/ADR-RES = system: NCI/ADR-RES

## COc1ccc(/C=C2\C(=O)N(C)C(=O)c3cc(OC)c(OC)cc32)cc1OC
K562
  GI50: 28.2 µM (inactive)
MDA-MB-231
  GI50: 39.4 µM (inactive)
LOX IMVI
  GI50: 16 µM (inactive)
MDA-N
  GI50: 24.3 µM (inactive)
HCT-116
  GI50: 29.4 µM (inactive)
NCI-H226
  GI50: 12.9 µM (inactive)
CCRF-CEM
  GI50: 20.2 µM (inactive)
SR
  GI50: 19.2 µM (inactive)
NCI-H460
  GI50: 37.5 µM (inactive)
RPMI-8226
  GI50: 27.7 µM (inactive)
MDA-MB-435
  GI50: 34.5 µM (inactive)
M14
  GI50: 65.2 µM (inactive)
NCI-H23
  GI50: 39.5 µM (inactive)
SF-539
  GI50: 34.9 µM (inactive)
EKVX
  GI50: 10.7 µM (inactive)
OVCAR-3
  GI50: 37.4 µM (inactive)
HCT-15
  GI50: 30.8 µM
SK-MEL-2
  GI50: 35.6 µM (inactive)
UACC-62
  GI50: 26.9 µM (inactive)
786-0
  GI50: 43.5 µM (inactive)
SW-620
  GI50: 36.6 µM (inactive)
HT-29
  GI50: 9.06 µM (inactive)
TK-10
  GI50: 43.1 µM (inactive)
SF-295
  GI50: 37.8 µM (inactive)
ACHN
  GI50: 30.5 µM (inactive)
CAKI-1
  GI50: 13.4 µM (inactive)
SK-MEL-5
  GI50: 28.8 µM (inactive)
NCI-H522
  GI50: 15.7 µM (inactive)
T47D
  GI50: 24.5 µM (inactive)
PC-3
  GI50: 49.7 µM (inactive)
RXF 393
  GI50: 23.6 µM (inactive)
BT-549
  GI50: 17.6 µM (inactive)
OVCAR-5
  GI50: 48.9 µM (inactive)
COLO 205
  GI50: 16.4 µM (inactive)
SNB-19
  GI50: 43.3 µM (inactive)
HOP-92
  GI50: 23.4 µM (inactive)
IGROV-1
  GI50: 29.2 µM (inactive)
UO-31
  GI50: 48 µM (inactive)
OVCAR-4
  GI50: 38.9 µM (inactive)
HCC 2998
  GI50: > 100 µM (inactive)
SN12C
  GI50: 32.8 µM (inactive)
A549
  GI50: 65.6 µM (inactive)
U-251
  GI50: 33 µM (inactive)
HL-60
  GI50: 14.5 µM (inactive)
UACC-257
  GI50: 47.3 µM (inactive)
MOLT-4
  GI50: 52.1 µM (inactive)
MCF7
  GI50: 27.2 µM (inactive)
DU-145
  GI50: 25.3 µM (inactive)
A498
  GI50: 27.4 µM (inactive)
HOP-62
  GI50: 29.9 µM (inactive)

## COC(=O)[C@H](C)N1C(=O)N[C@@H](C(C)C)C1=O
K562
  GI50: > 100 µM (inactive)
MDA-MB-231
  GI50: > 100 µM (inactive)
LOX IMVI
  GI50: > 100 µM (inactive)
MDA-N
  GI50: > 100 µM (inactive)
HCT-116
  GI50: > 100 µM (inactive)
NCI-H226
  GI50: > 100 µM (inactive)
CCRF-CEM
  GI50: > 100 µM (inactive)
SR
  GI50: > 100 µM (inactive)
NCI-H460
  GI50: > 100 µM (inactive)
RPMI-8226
  GI50: > 100 µM (inactive)
MDA-MB-435
  GI50: > 100 µM (inactive)
M14
  GI50: > 100 µM (inactive)
NCI-H23
  GI50: > 100 µM (inactive)
SF-539
  GI50: > 100 µM (inactive)
EKVX
  GI50: > 100 µM (inactive)
OVCAR-3
  GI50: > 100 µM (inactive)
HCT-15
  GI50: > 100 µM
SK-MEL-2
  GI50: > 100 µM (inactive)
UACC-62
  GI50: > 100 µM (inactive)
786-0
  GI50: > 100 µM (inactive)
SW-620
  GI50: > 100 µM (inactive)
HT-29
  GI50: > 100 µM (inactive)
TK-10
  GI50: > 100 µM (inactive)
OVCAR-8
  GI50: > 100 µM (inactive)
SF-295
  GI50: > 100 µM (inactive)
ACHN
  GI50: > 100 µM (inactive)
CAKI-1
  GI50: > 100 µM (inactive)
SK-MEL-5
  GI50: > 100 µM (inactive)
NCI-H522
  GI50: > 100 µM (inactive)
SK-MEL-28
  GI50: > 100 µM (inactive)
T47D
  GI50: > 100 µM (inactive)
PC-3
  GI50: > 100 µM (inactive)
RXF 393
  GI50: > 100 µM (inactive)
SNB-75
  GI50: 82 µM (inactive)
Malme-3M
  GI50: > 100 µM (inactive)
BT-549
  GI50: > 100 µM (inactive)
OVCAR-5
  GI50: > 100 µM (inactive)
COLO 205
  GI50: > 100 µM (inactive)
SNB-19
  GI50: > 100 µM (inactive)
HOP-92
  GI50: > 100 µM (inactive)
IGROV-1
  GI50: > 100 µM (inactive)
UO-31
  GI50: > 100 µM (inactive)
OVCAR-4
  GI50: > 100 µM (inactive)
HCC 2998
  GI50: > 100 µM (inactive)
SN12C
  GI50: > 100 µM (inactive)
A549
  GI50: > 100 µM (inactive)
U-251
  GI50: > 100 µM (inactive)
UACC-257
  GI50: > 100 µM (inactive)
MOLT-4
  GI50: > 100 µM (inactive)
MCF7
  GI50: > 100 µM (inactive)
DU-145
  GI50: > 100 µM (inactive)
SK-OV-3
  GI50: > 100 µM (inactive)
KM12
  GI50: > 100 µM (inactive)
HOP-62
  GI50: > 100 µM (inactive)
NCI/ADR-RES
  GI50: > 100 µM (inactive)
